Measurements published in US20070219193A1, “ALKYLAMINE-SUBSTITUTED BICYCLIC ARYL COMPOUNDS USEFUL AS MODULATORS OF PPAR” (KALYPSYS, INC, priority 2006, published 2007).

Assays:
Type in all cases: cell-based
[1] = target: T1, PPAR gamma (Homo sapiens, UniProt P37231); assay: Full-length PPAR transcriptional activation assay (PPRE::Luciferase reporter, HEK293 cells), PPAR gamma; conditions: transfected HEK293 cells (PPARγ2 plasmid), species of receptor not given
T1 construct: expressed in transfected cells; host or cells: HEK293
T1 sequence (P37231 1-505): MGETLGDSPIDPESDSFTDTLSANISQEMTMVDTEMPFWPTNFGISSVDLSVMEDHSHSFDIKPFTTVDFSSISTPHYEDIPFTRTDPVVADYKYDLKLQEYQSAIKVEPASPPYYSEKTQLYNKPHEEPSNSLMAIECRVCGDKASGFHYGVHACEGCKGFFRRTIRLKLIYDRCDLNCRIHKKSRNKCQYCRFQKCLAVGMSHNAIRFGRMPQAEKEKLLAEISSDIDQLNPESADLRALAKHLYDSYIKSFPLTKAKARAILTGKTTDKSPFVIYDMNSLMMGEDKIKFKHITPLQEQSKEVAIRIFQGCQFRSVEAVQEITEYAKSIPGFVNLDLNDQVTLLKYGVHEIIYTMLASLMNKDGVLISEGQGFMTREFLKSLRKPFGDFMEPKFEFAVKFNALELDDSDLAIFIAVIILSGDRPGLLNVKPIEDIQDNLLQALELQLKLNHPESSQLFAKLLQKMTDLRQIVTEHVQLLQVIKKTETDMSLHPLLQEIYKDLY
Experimental: (§1) HEK293 cells were seeded the day before transfection into 384-well plates at a cell density of 6,000 cells per well in 40 μl assay medium I (phenol red-free DMEM containing 4% charcoal-dextran stripped FBS, 1% Penicillin-Streptomycin and 1% GlutaMax-1). Then 25 ng of PPRE::Luciferase reporter plasmid, an expression plasmid (25 pg of PPARα, or 40 pg of PPARδ, or 75 pg of PPARγ2), and an appropriate amount of the plasmid pUC19 to bring the total DNA amount to 50 ng was added to 20 μl of phenol-red free DMEM and 150 nL of Fugene 6 and incubated for 30 minutes. The transfection mixtures were then added to the cells and incubated for three hours. 10 μl of test agents in 5% DMSO were then added to the cells and incubated at 37° C. for an additional 18 hours. Luciferase activity was then assayed by adding 25 μl/well of Britelite (Perkin Elmer) according to the manufacturer's protocol and relative light output was measured with an Analyst GT plate reader (Molecular Devices). All experimental points were done in triplicate and the assays were repeated at least 3 times.
(§2) HEK293 cells were seeded the day before transfection in […] dishes at a density of 9×10^6 cells/dish and incubated at 37° C., 10% CO2 for 16-24 hours. Then, […] of PPRE::Luciferase reporter plasmid, an expression plasmid (7.5 ng of PPARα, or 7.5 ng of PPARδ, or 75 ng of PPARγ2), and an appropriate amount of the plasmid pUC19 to bring the total DNA amount to […] were mixed with 54 μl of Fugene 6 in 2 mls of phenol red-free DMEM and incubated for 30 minutes. Transfection mixtures were then incubated with the cells for 18 hours. Cells were then replated into sterile, white TC treated 384-well assay plates at a cell density of 24×10^3 cells/well in 40 μl of assay medium II (phenol-red free DMEM containing 3% charcoal/dextran-stripped FBS, 1% Penicillin-Streptomycin and 1% GlutaMax-1) and incubated at 37° C. for 6 hours. 10 μl of test agents in 5% DMSO were then added to the cells and incubated at 37° C. for an additional 18 hours. Luciferase activity was then assayed by adding 30 μl/well of Britelite (Perkin Elmer) according to the manufacturer's protocol and relative light output was measured with an Analyst GT plate reader (Molecular Devices). All experimental points were done in triplicate and the assays were repeated 3 times.

[2] = target: T2, PPAR alpha (Homo sapiens, UniProt Q07869); assay: Full-length PPAR transcriptional activation assay (PPRE::Luciferase reporter, HEK293 cells), PPAR alpha; conditions: transfected HEK293 cells, species of receptor not given
T2 construct: expressed in transfected cells; host or cells: HEK293
T2 sequence (Q07869 1-468): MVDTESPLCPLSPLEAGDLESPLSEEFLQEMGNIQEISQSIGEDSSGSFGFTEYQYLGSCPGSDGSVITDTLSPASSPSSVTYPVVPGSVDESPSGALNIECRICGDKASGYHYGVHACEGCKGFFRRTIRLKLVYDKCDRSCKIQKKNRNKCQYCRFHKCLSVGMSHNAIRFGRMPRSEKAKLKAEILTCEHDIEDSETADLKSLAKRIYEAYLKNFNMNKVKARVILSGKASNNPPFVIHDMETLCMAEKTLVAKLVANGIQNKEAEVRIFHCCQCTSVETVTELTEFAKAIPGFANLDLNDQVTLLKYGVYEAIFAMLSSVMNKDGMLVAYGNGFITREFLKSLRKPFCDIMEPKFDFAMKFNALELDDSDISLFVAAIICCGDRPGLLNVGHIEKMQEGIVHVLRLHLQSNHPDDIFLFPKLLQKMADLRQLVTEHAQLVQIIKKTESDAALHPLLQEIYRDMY
Experimental: as §1, §2

[3] = target: T3, PPAR delta (Homo sapiens, UniProt Q03181); assay: Full-length PPAR transcriptional activation assay (PPRE::Luciferase reporter, HEK293 cells), PPAR delta; conditions: transfected HEK293 cells, species of receptor not given
T3 construct: expressed in transfected cells; host or cells: HEK293
T3 sequence (Q03181 1-441): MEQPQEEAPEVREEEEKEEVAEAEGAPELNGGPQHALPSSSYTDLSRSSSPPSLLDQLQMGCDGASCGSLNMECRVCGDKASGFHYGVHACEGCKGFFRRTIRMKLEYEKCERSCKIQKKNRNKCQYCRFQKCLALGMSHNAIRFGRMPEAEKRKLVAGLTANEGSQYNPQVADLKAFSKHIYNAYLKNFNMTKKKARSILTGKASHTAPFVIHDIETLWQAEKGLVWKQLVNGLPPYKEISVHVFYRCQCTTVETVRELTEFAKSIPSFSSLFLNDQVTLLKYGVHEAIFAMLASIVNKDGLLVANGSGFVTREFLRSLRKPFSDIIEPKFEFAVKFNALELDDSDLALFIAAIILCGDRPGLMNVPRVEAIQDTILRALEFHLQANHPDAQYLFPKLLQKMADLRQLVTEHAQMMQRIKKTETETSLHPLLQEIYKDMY
Experimental: as §1, §2

Row | Compound | EC50 [1] | EC50 [2] | EC50 [3]
1 | CCc1cnc(N(CCCC2Oc3cc(CC(=O)O)ccc3CC2C)Cc2ccc(OC(F)(F)F)cc2)nc1 (single isomer, unassigned) [Example 18A, 2-(2-(3-((5-ethylpyrimidin-2-yl)(4-(trifluoromethoxy)benzyl)amino)propyl)-3-methylchroman-7-yl)acetic acid] | ≤ 1000 nM | > 1000 nM | ≤ 1000 nM
2 | CCc1cnc(N(CCCC2Oc3cc(CC(=O)O)ccc3CC2C)Cc2ccc(OC(F)(F)F)cc2)nc1 (single isomer, unassigned) [Example 18B] | ≤ 1000 nM | ≤ 1000 nM | ≤ 1000 nM
3 | CCc1cnc(N(CCCC2Oc3cc(CC(=O)O)ccc3CC2C)Cc2ccc(OC(F)(F)F)cc2)nc1 (single isomer, unassigned) [Example 18C] | > 1000 nM | ≤ 1000 nM | ≤ 1000 nM
4 | CCc1cnc(N(CCCC2Oc3cc(CC(=O)O)ccc3CC2C)Cc2ccc(OC(F)(F)F)cc2)nc1 (single isomer, unassigned) [Example 18D] | ≤ 1000 nM | > 1000 nM | ≤ 1000 nM
5 | CCc1cnc(N(CCCC2Oc3cccc(CC(=O)O)c3CC2C)Cc2ccc(OC(F)(F)F)cc2)nc1 (single isomer, unassigned) [Example 19A, 2-(2-(3-((5-ethylpyrimidin-2-yl)(4-(trifluoromethoxy)benzyl)amino)propyl)-3-methylchroman-5-yl)acetic acid] | ≤ 1000 nM | > 1000 nM | ≤ 1000 nM
6 | CCc1cnc(N(CCCC2Oc3cccc(CC(=O)O)c3CC2C)Cc2ccc(OC(F)(F)F)cc2)nc1 (single isomer, unassigned) [Example 19B, 2-(2-(3-((5-ethylpyrimidin-2-yl)(4-(trifluoromethoxy)benzyl)amino)propyl)-3-methylchroman-5-yl)acetic acid] | ≤ 1000 nM | > 1000 nM | ≤ 1000 nM
7 | CCc1cnc(N(CCCC2Oc3cccc(CC(=O)O)c3CC2C)Cc2ccc(OC(F)(F)F)cc2)nc1 (single isomer, unassigned) [Example 19C, 2-(2-(3-((5-ethylpyrimidin-2-yl)(4-(trifluoromethoxy)benzyl)amino)propyl)-3-methylchroman-5-yl)acetic acid] | ≤ 1000 nM | > 1000 nM | ≤ 1000 nM
8 | CCc1cnc(N(CCCC2Oc3cccc(CC(=O)O)c3CC2C)Cc2ccc(OC(F)(F)F)cc2)nc1 (single isomer, unassigned) [Example 19D, 2-(2-(3-((5-ethylpyrimidin-2-yl)(4-(trifluoromethoxy)benzyl)amino)propyl)-3-methylchroman-5-yl)acetic acid] | ≤ 1000 nM | > 1000 nM | ≤ 1000 nM
9 | CCc1cnc(N(CCCN2CCc3ccc(CC(=O)O)cc3C2)Cc2ccc(OC(F)(F)F)cc2)nc1 [Example 1, (2-{3-[(5-Ethyl-pyrimidin-2-yl)-(4-trifluoromethoxy-benzyl)-amino]-propyl}-1,2,3,4-tetrahydro-isoquinolin-7-yl)-acetic acid] | ≤ 1000 nM | > 1000 nM | ≤ 1000 nM
10 | CCc1cnc(N(CCCN2CCc3ccc(CC(=O)O)cc3C2)Cc2ccc(C(F)(F)F)cc2C(F)(F)F)nc1 [Example 2, (2-{3-[(2,4-Bis-trifluoromethyl-benzyl)-(5-ethyl-pyrimidin-2-yl)-amino]-propyl}-1,2,3,4-tetrahydro-isoquinolin-7-yl)-acetic acid] | ≤ 1000 nM | > 1000 nM | ≤ 1000 nM
11 | CCc1cnc(N(CCN2CCc3ccc(CC(=O)O)cc3C2)Cc2ccc(OC(F)(F)F)cc2)nc1 [Example 3, (2-{2-[(5-Ethyl-pyrimidin-2-yl)-(4-trifluoromethoxy-benzyl)-amino]-ethyl}-1,2,3,4-tetrahydro-isoquinolin-7-yl)-acetic acid] | ≤ 1000 nM | > 1000 nM | ≤ 1000 nM
12 | CCc1cnc(N(CCN2CCc3ccc(CC(=O)O)cc3C2)Cc2ccc(C(F)(F)F)cc2C(F)(F)F)nc1 [Example 4, (2-{2-[(2,4-Bis-trifluoromethyl-benzyl)-(5-ethyl-pyrimidin-2-yl)-amino]-ethyl}-1,2,3,4-tetrahydro-isoquinolin-7-yl)-acetic acid] | ≤ 1000 nM | > 1000 nM | ≤ 1000 nM
13 | CCc1cnc(N(CCCCN2CCc3ccc(CC(=O)O)cc3C2)c2ccc(OC(F)(F)F)cc2)nc1 [Example 5, (2-{4-[(5-Ethyl-pyrimidin-2-yl)-(4-trifluoromethoxy-phenyl)-amino]-butyl}-1,2,3,4-tetrahydro-isoquinolin-7-yl)-acetic acid] | > 1000 nM | > 1000 nM | > 1000 nM
14 | CCc1cnc(N(CCCN2CCc3ccc(CC(=O)O)cc3C2)c2ccc(OC(F)(F)F)cc2)nc1 [Example 6, (2-{3-[(5-Ethyl-pyrimidin-2-yl)-(4-trifluoromethoxy-phenyl)-amino]-propyl}-1,2,3,4-tetrahydroisoquinolin-7-yl)-acetic acid] | > 1000 nM | > 1000 nM | > 1000 nM
15 | CCc1cnc(N(CCCN2CCc3ccc(CC(=O)O)cc3C2)c2ccc(C(F)(F)F)cc2)nc1 [Example 7, (2-[3-[(5-Ethyl-pyrimidin-2-yl)-(4-trifluoromethyl-phenyl)-amino]-propyl]-1,2,3,4-tetrahydroisoquinolin-7-yl)-acetic acid] | > 1000 nM | > 1000 nM | > 1000 nM
16 | CCc1cnc(N(CCc2ccc(C(F)(F)F)cc2)CCN2CCc3ccc(CC(=O)O)cc3C2)nc1 [Example 8, [2-(2-{(5-Ethyl-pyrimidin-2-yl)-[2-(4-trifluoromethyl-phenyl)-ethyl]-amino}-ethyl)-1,2,3,4-tetrahydro-isoquinolin-7-yl]-acetic acid] | > 1000 nM | > 1000 nM | ≤ 1000 nM
17 | CCc1cnc(N(CCCN2CCc3ccc(CC(=O)O)cc3C2)CCc2ccc(C(F)(F)F)cc2)nc1 [Example 9, [2-(3-{(5-Ethyl-pyrimidin-2-yl)-[2-(4-trifluoromethyl-phenyl)-ethyl]-amino}-propyl)-1,2,3,4-tetrahydro-isoquinolin-7-yl]-acetic acid] | > 1000 nM | > 1000 nM | ≤ 1000 nM
